Assays:
[1] = target: T1, cholesterol side-chain cleaving enzyme (Sus scrofa, UniProt P10612); assay: Inhibitory activity against cholesterol side-chain cleaving enzyme (Pharmacological Test 2, porcine adrenal mitochondria); format: biochemical; conditions: substrate 5-cholesten-3β-ol 5.0×10^-6 M, read-out: SCC-IC50
T1 construct: porcine adrenal mitochondria; from tissue; host or cells: porcine adrenal mitochondria
T1 sequence (P10612 40-520): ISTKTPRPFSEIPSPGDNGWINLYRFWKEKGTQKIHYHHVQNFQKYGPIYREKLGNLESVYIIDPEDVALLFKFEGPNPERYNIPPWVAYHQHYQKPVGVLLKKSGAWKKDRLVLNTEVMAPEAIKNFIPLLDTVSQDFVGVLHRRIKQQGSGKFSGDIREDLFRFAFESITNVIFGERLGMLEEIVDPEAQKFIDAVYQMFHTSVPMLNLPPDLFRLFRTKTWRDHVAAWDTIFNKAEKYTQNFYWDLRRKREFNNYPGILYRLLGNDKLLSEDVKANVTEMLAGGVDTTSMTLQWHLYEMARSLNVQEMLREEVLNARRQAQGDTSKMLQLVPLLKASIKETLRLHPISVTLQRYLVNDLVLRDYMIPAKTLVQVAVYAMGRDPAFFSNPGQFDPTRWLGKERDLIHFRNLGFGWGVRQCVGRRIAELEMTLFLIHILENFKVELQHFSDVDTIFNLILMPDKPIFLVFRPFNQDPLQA
Method: Inhibitory activity against cholesterol side-chain cleaving enzyme was determined according to the method of M. Shikita and P. F. Hall [Proc. Nat. […] Briefly, the each compound to be tested was added to a reaction vial containing porcine adrenal mitochondria, [4-^14 C]5-cholesten-3β-ol (250 Bq/5 nmol) and NADPH. […] These were separated by extracting the reaction mixture with methylene-dichloride followed by purifying with thin-layer chromatography. Substrate (5-cholesten-3β-ol) and reaction product (3β-hydroxypregn-5-en-20-one) were respectively measured by a liquid scintillation counter. The measured quantity of 3β-hydroxypregn-5-en-20-one was used to determine cholesterol side-chain cleaving activity which was compared with the activity when incubated without inhibitor to calculate inhibition ratio (%).

Aromatase = target: T2, Aromatase (Homo sapiens, UniProt P11511); assay: Aromatase inhibitory activity (Pharmacological Test 1, human placenta microsome); format: biochemical; conditions: substrate 4-androsten-3,17-dione 1.0×10^-6 M, read-out: AI-IC50
T2 construct: human placenta microsome; from tissue; host or cells: human placenta microsomes
T2 sequence (P11511 1-503): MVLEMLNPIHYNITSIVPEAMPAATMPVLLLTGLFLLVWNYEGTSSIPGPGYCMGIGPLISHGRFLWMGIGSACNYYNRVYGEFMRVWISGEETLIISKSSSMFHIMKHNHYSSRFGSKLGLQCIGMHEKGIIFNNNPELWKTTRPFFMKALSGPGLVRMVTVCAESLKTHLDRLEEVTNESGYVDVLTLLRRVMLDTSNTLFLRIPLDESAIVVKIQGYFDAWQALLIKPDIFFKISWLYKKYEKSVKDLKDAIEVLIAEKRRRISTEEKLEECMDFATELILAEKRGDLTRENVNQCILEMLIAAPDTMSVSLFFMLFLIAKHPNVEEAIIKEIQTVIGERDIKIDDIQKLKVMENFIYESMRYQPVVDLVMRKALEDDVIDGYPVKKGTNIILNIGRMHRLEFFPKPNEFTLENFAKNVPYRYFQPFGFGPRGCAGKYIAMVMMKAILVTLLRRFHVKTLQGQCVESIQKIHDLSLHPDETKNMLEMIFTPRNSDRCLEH
Method: Aromatase inhibitory activity was determined according to the method of E. A. Thompson and P. K. Siiteri [J. Biol. Chem., 249, 5364-5372 (1974)]. The each compound to be tested was added to a reaction vial containing human placenta microsome, [1β,2 β-^3 H]4-androsten-3,17-dione (3.3 kBq/500 pmol) and NADPH. […] The obtained [^3 H]H2 O was measured by a liquid scintillation counter. The measured quantity of [3H]H20 was used to determine aromatase activity, and was compared with the activity when incubated without inhibitor to calculate inhibition ratio (%).

Compound	IC50 [1] [nM]	IC50 (Aromatase) [nM]
CCC1(c2ccc(N)cc2)CCC(=O)NC1=O (stereo not shown) [AG, aminoglutethimide, reference compound]	66000	–
CN(C)c1nc(N2CCOCC2)nc(-n2ccnc2)n1 [Compound 1, 2-(1-Imidazolyl)-4-dimethylamino-6-morpholino-1,3,5-triazine]	> 100000	10
CN(C)c1nc(N2CCCC2)nc(-n2ccnc2)n1 [Compound 2, 2-(1-Imidazolyl)-4-dimethylamino-6-(1-pyrrolidinyl)-1,3,5-triazine]	> 100000	1300
CN(C)c1nc(N2CCCCC2)nc(-n2ccnc2)n1 [Compound 3, 2-(1-Imidazolyl)-4-dimethylamino-6-piperidino-1,3,5-triazine]	> 100000	770
Cc1ncn(-c2nc(N(C)C)nc(-n3ccnc3)n2)c1C [Compound 5, 2-(1-Imidazolyl)-4-dimethylamino-6-(4,5-dimethyl-1-imidazolyl)-1,3,5-triazine]	> 100000	200
CC(C)c1nccn1-c1nc(N(C)C)nc(-n2ccnc2)n1 [Compound 6, 2-(1-Imidazolyl)-4-(2-isopropyl-1-imidazolyl)-6-dimethylamino-1,3,5-triazine]	> 100000	4300
c1ccc(N2CCN(c3nc(N4CCOCC4)nc(-n4ccnc4)n3)CC2)nc1 [Compound 8, 2-(1-Imidazolyl)-4-morpholino-6-[4-(2-pyridyl)-1-piperazinyl]-1,3,5-triazine]	54000	11
c1ccc(CN2CCN(c3nc(N4CCOCC4)nc(-n4ccnc4)n3)CC2)cc1 [Compound 9, 2-(4-Benzyl-1-piperazinyl)-4-(1-imidazolyl)-6-morpholino-1,3,5-triazine]	15000	17
CC1CN(c2nc(N3CCOCC3)nc(-n3ccnc3)n2)CC(C)O1 (stereo not shown) [Compound 10, 2-(1-Imidazolyl)-4-(2,6-dimethylmorpholino)-6-morpholino-1,3,5-triazine]	> 100000	31
CC1CC(C)CN(c2nc(N3CCOCC3)nc(-n3ccnc3)n2)C1 (stereo not shown) [Compound 11, 2-(1-Imidazolyl)-4-(3,5-dimethylpiperidino)-6-morpholino-1,3,5-triazine]	19000	11
c1cn(-c2nc(N3CCOCC3)nc(N3CCC4(CC3)OCCO4)n2)cn1 [Compound 12, 2-(4,4-Ethylenedioxypiperidino)-4-(1-imidazolyl)-6-morpholino-1,3,5-triazine]	> 100000	24
CN(c1ccccc1)c1nc(N2CCOCC2)nc(-n2ccnc2)n1 [Compound 14, 2-(1-Imidazolyl)-4-(N-methyl-N-phenylamino)-6-morpholino-1,3,5-triazine]	31000	6.7
c1cn(-c2nc(N3CCCC3)nc(N3CCCC3)n2)cn1 [Compound 17, 2-(1-Imidazolyl)-4,6-bis(1-pyrrolidinyl)-1,3,5-triazine]	> 100000	310
c1cn(-c2nc(N3CCCCC3)nc(N3CCCCC3)n2)cn1 [Compound 18, 2-(1-Imidazolyl)-4,6-dipiperidino-1,3,5-triazine]	> 100000	310
c1cn(-c2nc(N3CCSCC3)nc(N3CCSCC3)n2)cn1 [Compound 21, 2-(1-Imidazolyl)-4,6-bis(thiomorpholino)-1,3,5-triazine]	100000	5.1
c1cn(-c2nc(N3CCOCC3)nc(-n3ccnc3)n2)cn1 [Compound 23, 2,4-Bis(1-imidazolyl)-6-morpholino-1,3,5-triazine]	> 100000	21
CN(C)c1nc(-n2ccnc2)nc(-n2ccnc2)n1 [Compound 24, 2,4-Bis(1-imidazolyl)-6-dimethylamino-1,3,5-triazine]	80000	550

Compound	IC50 [1] [nM]	IC50 (Aromatase) [nM]
CCN(CC)c1nc(-n2ccnc2)nc(-n2ccnc2)n1 [Compound 25, 2,4-Bis(1-imidazolyl)-6-diethylamino-1,3,5-triazine]	25000	60
c1cn(-c2nc(N3CCCC3)nc(-n3ccnc3)n2)cn1 [Compound 26, 2,4-Bis(1-imidazolyl)-6-(1-pyrrolidinyl)-1,3,5-triazine]	> 100000	62
c1cn(-c2nc(N3CCCCC3)nc(-n3ccnc3)n2)cn1 [Compound 27, 2,4-Bis(1-imidazolyl)-6-piperidino-1,3,5-triazine]	> 100000	64
c1ccc(C2CCN(c3nc(-n4ccnc4)nc(-n4ccnc4)n3)CC2)cc1 [Compound 28, 2,4-Bis(1-imidazolyl)-6-(4-phenylpiperidino)-1,3,5-triazine]	9500	62
CN1CCN(c2nc(-n3ccnc3)nc(-n3ccnc3)n2)CC1 [Compound 29, 2,4-Bis (1-imidazolyl)-6-(4-methyl-1-piperazinyl)-1,3,5-triazine]	75000	230
c1ccc(N2CCN(c3nc(-n4ccnc4)nc(-n4ccnc4)n3)CC2)cc1 [Compound 30, 2,4-Bis(1-imidazolyl)-6-(4-phenyl-1-piperazinyl)-1,3,5-triazine]	65000	220
c1cn(-c2nc(N3CCSCC3)nc(-n3ccnc3)n2)cn1 [Compound 31, 2,4-Bis (1-imidazolyl)-6-thiomorpholino-1,3,5-triazine]	> 100000	43
CN(c1ccccc1)c1nc(-n2ccnc2)nc(-n2ccnc2)n1 [Compound 32, 2,4-Bis(1-imidazolyl)-6-(N-methyl-N-phenylamino)-1,3,5-triazine]	16000	29
CCCCN(CCCC)c1nc(-n2ccnc2)nc(-n2ccnc2)n1 [Compound 36, 2-(Di-n-butylamino)-4,6-bis(1-imidazolyl)-1,3,5-triazine]	12000	14
c1ccc(C2CCN(c3nc(N4CCSCC4)nc(-n4ccnc4)n3)CC2)cc1 [Compound 39, 2-(1-Imidazolyl)-4-(4-phenylpiperidino)-6-thiomorpholino-1,3,5-triazine]	37000	20
CCOC(=O)C1CCN(c2nc(N3CCOCC3)nc(-n3ccnc3)n2)CC1 [Compound 40, 2-(4-Ethoxycarbonylpiperidino)-4-(1-imidazolyl)-6-morpholino-1,3,5-triazine]	66000	24
CC(C)(C)OC(=O)C1CCCN1c1nc(N2CCOCC2)nc(-n2ccnc2)n1 (stereo not shown) [Compound 41, 2-(2-tert-Butoxycarbonyl-1-pyrrolidinyl)-4-(1-imidazolyl)-6-morpholino-1,3,5-triazine]	> 100000	37
CC1CN1c1nc(N2CCOCC2)nc(-n2ccnc2)n1 (stereo not shown) [Compound 42, 2-(1-Imidazolyl)-4-(2-methyl-1-aziridinyl)-6-morpholino-1,3,5-triazine]	> 100000	57
Fc1ccc(N2CCN(c3nc(N4CCOCC4)nc(-n4ccnc4)n3)CC2)cc1 [Compound 43, 2-[4-(4-Fluorophenyl)-1-piperazinyl]-4-(1-imidazolyl)-6-morpholino-1,3,5-triazine]	> 100000	20
c1cnc(N2CCN(c3nc(N4CCOCC4)nc(-n4ccnc4)n3)CC2)nc1 [Compound 44, 2-(1-Imidazolyl)-4-morpholino-6-[4-(2-pyrimidinyl)-1-piperazinyl]-1,3,5-triazine]	> 100000	33
CN(C)c1nc(N(C)C)nc(N(C)C)n1 [HMM, hexamethylmelamine, reference compound]	> 100000	–

From patent US5489591A, “S-triazine derivative and remedy for estrogen-dependent disease containing said derivative as effective component” (Zenyaku Kogyo Kabushiki Kaisha, priority 1992, dated 1996)
